The text below walks through data of US7446091B2, “Methods and preparations for curing clinically ill patients” (Novo Nordisk A/S, priority 2000, dated 2008).

Several values for one entry are separate records, joined by “and”; a condition that tells them apart may be missing. Equal entries are not always repeated.

Data set [1] concerns patients treated in the ICU. The experiment in a line: Example 1: prospective clinical study, weekly EMG screening for CIPNP in long-stay ICU patients. The settings on record: for CIPNP-free time on the ICU: long-stay patients. It counts as in vivo, human. The protocol:
Between Feb. 2 and Apr. 25, 2000, 400 patients were included in the study. […] All other treatments, including feeding regimens, were according to standing orders currently applied within the ICU. Exclusion criteria were age <18y, pregnancy and not being intubated at admission.
When patients were still treated in the ICU after 7 days, a weekly EMG examination was performed to screen for the presence of CIPNP. The EMGs were always interpreted by the same expert in electrophysiology. In order to accurately assess ICU stay, which is often determined by other factors than the patient's condition—e.g. bed availability on the wards—“end of ICU stay” was defined as the day on which the attending physician considers the patient to be “ready for discharge”.

Data set [2] deals with mechanically ventilated, adult patients admitted to the intensive care unit (ICU). The experiment in a line: Example 2: glycemia control (whole blood glucose). The class given is in vivo. How it is done:
A blood sample was taken upon ICU admission and daily at 06:00 h until discharge from ICU or death. On-admission and daily morning, whole blood glucose level as well as daily maximal and minimal glycemia were analysed. Analyses on the 06:00 h sample also included clinical chemistry, hematology and markers of inflammation.

Regarding insulin, in data set [1] (intensive insulin group), the “Long-stay ICU patients with a positive EMG for CIPNP (% of the long stayers)” value amounted to 39%, the “Number of positive EMGs for CIPNP per patient (mean ± SD)” value stood at 0.9±1.8, the “Number of positive EMGs for CIPNP per patient (median)” value was “zero” and the “CIPNP-free time on the ICU” value was determined as 2.1±1.8 weeks. Further, in data set [1] (intensive insulin group, 38 long-stay patients), the “Long-stay ICU patients with a positive EMG for CIPNP at any time during the ICU stay, number” value is recorded as “Fifteen”. Moreover, the “ICU-mortality, difference between the two treatment groups” value in data set [1] (intensive vs restrictive insulin schedule, P=0.4) is listed as “not detectably different”. Besides, in data set [1] (restrictive insulin group), the “CIPNP-free time on the ICU” value was 1.1±1.2 weeks, the “Long-stay ICU patients with a positive EMG for CIPNP (% of the long stayers)” value is 67%, the “Number of positive EMGs for CIPNP per patient (mean ± SD)” value came to 1.8±2.1 and the “Number of positive EMGs for CIPNP per patient (median)” value was 1. Further, the “Long-stay ICU patients with a positive EMG for CIPNP at any time during the ICU stay, number” value in data set [1] (restrictive insulin group, 45 long-stay patients) is recorded as 30. Besides, in data set [2] (IIS), the “Mean 06:00 h blood glucose level when on insulin (mmol/L) (mean ± SD)” value is listed as 5.7 ± 1.0 mmol/L, the “Patients who never exceeded 6.1 mmol/L after treatment initiation” value was 48%, the “Patients who occasionally peaked over 8.4 mmol/L” value stood at 17% and the “Patients with blood glucose levels that failed to go below 6.1 mmol/L within 48 h” value is recorded as 0.1%. Besides, the “Consequences of hypoglycemia events” value in data set [2] (IIS and RIS) is on record as “never induced serious symptoms such as hemodynamic deterioration or epilepsia”. In data set [2] (IIS, N = 765), the “Mean 06:00 h blood glucose level (mmol/L) (mean ± SD)” value is 5.8 ± 1.0 mmol/L and 5.7 ± 1.0 mmol/L. Further, in data set [2] (RIS), the “Mean 06:00 h blood glucose level when on insulin (mmol/L) (mean ± SD)” value turned out to be 9.6 ± 1.8 mmol/L and the “Patients in whom glycemia transiently fell below 2.3 mmol/L, number” value turned out to be 6. Moreover, in data set [2] (RIS, N = 783), the “Mean 06:00 h blood glucose level (mmol/L) (mean ± SD)” value worked out at 8.5 ± 1.8 mmol/L.
